What all share (assay type): biochemical
Test [1] addresses T1, fXIa (Homo sapiens, UniProt P03951). Put plainly: P1 substrate specificity, defined library Ac-Ala-Arg-Leu-P1-ACC. To be noted: individual substrates Ac-Ala-Arg-Leu-P1-ACC, 100 μM, 8 nM fXIa, RFU/s, best residue = 100%, n = 2. Further details: complete conversion of the single chain zymogen to the two-chain active form; made in house; host or cells: HEK293 cells expressing EBNA (pCEP4 vector). As to the method:
(§1) All kinetic assays were performed using a spectrofluorometer (Molecular Devices SpectraMax Gemini XPS) on 96-well, white, flat bottom, nontreated plates (Corning). The parameters were as follows: excitation/emission wavelength, 355/460 nm (cutoff, 455 nm); varying concentrations of substrates, ABPs, inhibitor, and enzymes. The assay buffer (20 mM Tris-base, 150 mM NaCl, 5 mM CaCl2, pH 7.4) was prepared at room temperature, and the enzyme kinetic studies were performed at 37 °C. All enzymes were preincubated in assay buffer for 15 min at 37 °C before addition to the wells. Each assay was repeated at least twice, and the data represent the average of these repetitions. The obtained results were analyzed using SoftMax (Molecular Devices), GraphPad Prism, and Microsoft Excel software.
To determine fXIa preferences at the P1 position, we used the Ac-Ala-Arg-Leu-P1-ACC library of 133 individual fluorogenic substrates.[34] The assay conditions were as follows: 0.5 μL of each library substrate was placed in one well, and 99.5 μL of preincubated enzyme (15 min, 37 °C) was added. The final library concentration was 100 μM, and the enzyme concentration was 8 nM. The release of ACC was measured for 30 min (λex = 355 nm, λem = 460 nm), but only the linear portion of each progress curve was used to determine the substrate hydrolysis rate (RFU/s, relative fluorescence unit per second). […]

For test [2], the target named is T1, fXIa. Put plainly: Screening of individual substrates (hydrolysis rate, RFU/s). Also noted: complete conversion of the single chain zymogen to the two-chain active form; made in house; host or cells: HEK293 cells expressing EBNA (pCEP4 vector). The note with it: substrate 1 μM, 5 nM fXIa, RFU/s over 30 min, 37 °C. As for the experimental part:
as §1
All potentially selective fXIa substrates were tested for their selectivity against four coagulation factors, APC, thrombin, fXa, and fXIa at a concentration of 1 μM. The assay conditions were as follows: 1 μL of each substrate was placed in separate wells on the plate followed by the addition of 99 μL of preincubated enzyme (15 min, 37 °C) in assay buffer. To obtain reliable results and a robust fluorescence signal, the final enzyme concentration was 120 nM for APC, 20 nM for thrombin, 70 nM for fXa, and 5 nM for fXIa. Substrate hydrolysis was measured for 30 min (λex = 355 nm, λem = 460 nm), and the linear part of each progress curve was used to determine the substrate hydrolysis rate (RFU/s). The obtained RFU/s were then adjusted to represent the value corresponding to the same enzyme activity.

For test [3], the target named is T1, fXIa. Put plainly: Labeling of purified coagulation factors with ABPs, SDS-PAGE and blot. Also noted: complete conversion of the single chain zymogen to the two-chain active form; made in house; host or cells: HEK293 cells expressing EBNA (pCEP4 vector). The note with it: APC, thrombin, fXa, fXIa 200 nM each, separately, probe/enzyme 1:1, 30 min, 37 °C; for labeling of purified coagulation factors by biotinylated ABP (western blot): streptavidin Alexa Fluor 647, 658 nm. As to the method:
To determine biotin-labeled ABPs selectivity, four purified coagulation factors (APC, thrombin, fXa, and fXIa) with a constant concentration of 200 nM were incubated separately with each probe (the probe/enzyme ratio was 1) in assay buffer for 30 min at 37 °C. Each enzyme was incubated with each probe in a volume of 40 μL followed by reduction with 20 μL of 3 × SDS/DTT for 5 min at 95 °C. The first well was loaded with 0.5 μL of the protein marker PageRuler Prestained Protein Ladder (Thermo Scientific), and then 10 μL of each sample was run on a 12% (w/v) 15-well gel. SDS–PAGE separation was performed at 200 V for 39 min followed by a wet tank transfer to a nitrocellulose membrane (0.2 μm, Bio-Rad) at 10 V for 60 min. The membrane was blocked with 2.5% BSA in TBS-T (Tris-buffered saline with 0.1% (v/v) Tween 20) for 60 min at room temperature. Next, the membrane was incubated with fluorescent streptavidin Alexa Fluor 647 conjugate (dilution 1:10,000 in TBS-T with 1% BSA) for 60 min. The biotin-labeled ABPs were detected at 658 nm using an Azure Biosystems Sapphire Biomolecular Imager and Azure Spot Analysis software.
For fluorescently labeled probe sample preparation, electrophoresis and membrane transfer were performed as described above. When testing the inhibitor utility, 200 nM fXIa was incubated with inhibitor (final inhibitor concentration 5 μM) for 60 min prior to probe addition. After the membrane was blocked with 2.5% BSA in TBS-T (60 min), the labeled proteins were directly imaged with a […] laser using an Azure Biosystems Sapphire Biomolecular Imager and Azure Spot Analysis software.

For test [4], the target named is T2, fXa (Homo sapiens, UniProt P00742).
T2 construct: from tissue; host or cells: fresh frozen plasma
T2 sequence (P00742 235-488 limits assumed): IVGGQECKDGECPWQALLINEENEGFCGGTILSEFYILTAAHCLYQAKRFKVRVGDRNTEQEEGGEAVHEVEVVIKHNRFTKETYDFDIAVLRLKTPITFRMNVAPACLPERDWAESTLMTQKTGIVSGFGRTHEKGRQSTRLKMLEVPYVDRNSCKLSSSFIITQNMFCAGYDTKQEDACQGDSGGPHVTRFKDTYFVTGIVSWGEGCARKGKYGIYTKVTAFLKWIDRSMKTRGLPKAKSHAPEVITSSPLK
T2 sequence (P00742 41-179 partner limits assumed): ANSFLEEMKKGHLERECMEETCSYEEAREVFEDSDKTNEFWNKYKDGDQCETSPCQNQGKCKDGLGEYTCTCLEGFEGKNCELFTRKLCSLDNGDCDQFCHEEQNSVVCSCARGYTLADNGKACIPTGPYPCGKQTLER
Put plainly: Kinetic parameters (kcat/KM) of ACC-labeled substrates. To be noted: Michaelis-Menten, 200 nM fXa, assay buffer pH 7.4, 37 °C, ACC release 30 min; mean ± s.d., n = 3. As to the method: (§2) Protein C, factor X, and prothrombin were purified from fresh frozen plasma and then activated as previously described.[33]
as §1
(§3) The kinetic parameters (kcat, KM, and kcat/KM) of selected ACC-labeled substrates were determined using Michaelis–Menten nonlinear regression according to the protocol described by Poreba et al.[62] Each substrate was serially diluted until the eighth well to obtain substrate concentrations ranging from 1.16 nM to 111 μM depending on the substrate used. Next, each enzyme was preincubated (15 min, 37 °C) in assay buffer to a final enzyme concentration of 425 nM for APC, 70 nM for thrombin, 200 nM for fXa, and 5 nM for fXIa and was added to the wells containing eight different substrate concentrations. The release of ACC was measured for 30 min (λex = 355 nm, λem = 460 nm). The linear part of each progression curve was used to calculate the kinetic parameters using GraphPad Prism and Microsoft Excel software.

In test [5] the target is T3, thrombin (Homo sapiens, UniProt P00734).
T3 construct: from tissue; host or cells: fresh frozen plasma
The test is described as above. The note with it: Michaelis-Menten, 70 nM thrombin, assay buffer pH 7.4, 37 °C, ACC release 30 min; mean ± s.d., n = 3. As to the method:
as §2, §1, §3

Test [6] deals with T1, fXIa. Described as above. Further details: complete conversion of the single chain zymogen to the two-chain active form; made in house; host or cells: HEK293 cells expressing EBNA (pCEP4 vector). To be noted: for kcat/KM fXIa: Michaelis-Menten, 5 nM fXIa, 20 mM Tris, 150 mM NaCl, 5 mM CaCl2, pH 7.4, 37 °C, ACC release 30 min, mean ± s.d., n = 3. As for the experimental part:
as §1, §3

For test [7], the target named is T1, fXIa. Put plainly: Detection of fXIa in human plasma with fluorescent ABP. To be noted: EDTA plasma, 60 min, 37 °C. As to the method:
Human plasma (collected in tubes containing anticoagulant EDTA) was isolated from whole blood as described elsewhere[33] and incubated with a fluorescently labeled probe at probe concentrations ranging from 1 to 20 μM. Incubation was carried out in assay buffer for 60 min at 37 °C. Plasma was incubated with the probe in a total volume of 40 μL (20 μL of plasma and 20 μL of probe) followed by reduction with 20 μL of 3 × SDS/DTT for 5 min at 95 °C. The first well was loaded with 0.5 μL of the protein marker PageRuler Prestained Protein Ladder (Thermo Scientific), and then 5 μL of each sample was run on a 12% (w/v) 15-well gel. SDS–PAGE separation was performed at 200 V for 39 min followed by transfer to a nitrocellulose membrane (0.2 μm, Bio-Rad) at 10 V for 60 min. The membrane was blocked with 2.5% BSA in TBS-T for 60 min at room temperature. Next, the membrane was treated with sheep antihuman polyclonal fXI antibody (Haematologic Technologies Inc., PAHFXI-S, 1:1000) for 7 h followed by incubation with Alexa Fluor 680 donkey antisheep secondary antibody (Life Technologies, A21102, 2:10,000) for 1 h (both at room temperature). The membrane was then scanned using an Azure Biosystems Sapphire Biomolecular Imager and Azure Spot Analysis software for fXIa at 488 nm (for BODIPY detection) and 658 nm (for antibody detection).

Test [8] addresses T4, APC (Homo sapiens, UniProt P04070).
T4 construct: from tissue; host or cells: fresh frozen plasma
Put plainly: Kinetic parameters (kcat/KM) of ACC-labeled substrates. To be noted: Michaelis-Menten, 425 nM APC, assay buffer pH 7.4, 37 °C, ACC release 30 min; mean ± s.d., n = 3. As for the experimental part: as §2, §1, §3

Values joined by “and” are separate entries in the source; they are usually repeats but may differ in a detail not shown here. Equal values may be shown once. [ ]: non-standard residue; d: D form. The star is where a group is joined. ACC = NC(=O)Cc1cc(=O)oc2cc(N*)ccc12; Nle = CCCC[C@H](N)C(=O)O; OBn = c1ccc(CO*)cc1; Bn = c1ccc(C*)cc1 Where only a bound is given, the exact number is not on record here.

T1 sequence (P03951 388-625 limits assumed): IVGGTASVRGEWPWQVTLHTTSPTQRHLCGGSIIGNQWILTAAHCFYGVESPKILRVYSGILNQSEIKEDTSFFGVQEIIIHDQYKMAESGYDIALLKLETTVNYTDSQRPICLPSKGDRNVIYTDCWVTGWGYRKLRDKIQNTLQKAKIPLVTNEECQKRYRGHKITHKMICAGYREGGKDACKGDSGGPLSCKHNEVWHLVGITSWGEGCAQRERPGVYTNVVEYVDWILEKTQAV
T1 sequence (P03951 19-387 partner limits assumed): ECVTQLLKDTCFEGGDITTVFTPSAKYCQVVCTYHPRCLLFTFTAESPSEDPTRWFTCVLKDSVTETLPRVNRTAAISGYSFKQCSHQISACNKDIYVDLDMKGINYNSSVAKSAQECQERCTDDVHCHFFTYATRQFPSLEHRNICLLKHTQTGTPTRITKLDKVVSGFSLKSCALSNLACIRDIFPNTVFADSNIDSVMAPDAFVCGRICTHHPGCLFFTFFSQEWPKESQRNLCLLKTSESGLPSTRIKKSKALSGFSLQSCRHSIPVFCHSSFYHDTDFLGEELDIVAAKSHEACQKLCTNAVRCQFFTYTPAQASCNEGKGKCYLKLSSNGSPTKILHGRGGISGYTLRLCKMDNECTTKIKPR
T4 sequence (P04070 212-461 limits assumed): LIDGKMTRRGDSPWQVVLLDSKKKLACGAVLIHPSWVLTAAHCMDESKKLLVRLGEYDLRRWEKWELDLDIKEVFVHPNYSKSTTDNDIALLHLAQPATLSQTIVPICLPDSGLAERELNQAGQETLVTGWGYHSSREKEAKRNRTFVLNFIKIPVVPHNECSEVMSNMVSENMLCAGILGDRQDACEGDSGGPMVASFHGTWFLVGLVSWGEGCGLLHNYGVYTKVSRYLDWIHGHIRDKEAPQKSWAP
T4 sequence (P04070 43-197 partner limits assumed): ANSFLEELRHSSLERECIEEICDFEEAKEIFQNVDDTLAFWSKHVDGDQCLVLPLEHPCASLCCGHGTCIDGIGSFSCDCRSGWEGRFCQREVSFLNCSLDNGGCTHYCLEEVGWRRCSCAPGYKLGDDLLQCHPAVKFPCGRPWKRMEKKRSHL

For the substance L-Arg, the “relative activity at the P1 position” value in test [1] stood at 100%.

For the substance “Ac-Tyr(2,6-Cl2-Z)-2-Aoc-Nle(O-Bzl)-Arg-ACC [SMXI22]”, the “decrease in activity relative to SMXI3 (P2 L-His(Bzl))” value in test [2] was 2.6 fold.

As to “Ac-Y(Bn)[Nle]E(OBn)R-{ACC} (SMILES CCCC[C@H](NC(=O)[C@H](Cc1ccc(OCc2ccccc2)cc1)NC(C)=O)C(=O)N[C@@H](CCC(=O)OCc1ccccc1)C(=O)N[C@@H](CCCNC(=N)N)C(=O)Nc1ccc2c(CC(N)=O)cc(=O)oc2c1) [SMXI13]”, the “activity on fXIa relative to SMXI5” value in test [2] (more active than SMXI5) is “fourfold”.

With “Ac-Tyr(2,6-Cl2-Z)-2-Aoc-Glu(Bzl)-Arg-ACC [SMXI7]”, the “decrease in activity relative to SMXI3 (P2 L-His(Bzl))” value in test [2] was found to be 1.5 fold.

Take “biotin-PEG(4)-Tyr(2,6-Cl2-Z)-Nle-Glu(Bzl)-ArgP(OPh)2 [P-SMXI51]”: the “labeling of purified coagulation factors by biotinylated ABP (western blot)” value in test [3] was “only one signal from a protein between 35 and 40 kDa, corresponding to a fXIa monomer”.

Regarding “Ac-Tyr(2,6-Cl2-Z)-Nle-Glu(Bzl)-Arg-ACC [SMXI5]”, in test [4], the “kcat/KM fXa” value is recorded as 4,500 ± 300 M^-1 s^-1. In test [5], the kcat/KM thrombin was 11,000 ± 300 M^-1 s^-1. Moreover, the “kcat/KM fXIa” value in test [6] is on record as 99,000 ± 7,000 M^-1 s^-1.

As to “BODIPY-PEG(4)-Tyr(2,6-Cl2-Z)-Nle-Glu(Bzl)-ArgP(OPh)2 [P-SMXI52]”, the “probe concentration from which a clear fXIa band is observed in human plasma” value in test [7] (probe 1-20 μM, SDS-PAGE, 488 nm, costaining with antifXI antibody) was no less than 2 µM. In test [7] (probe up to 20 μM), the “selectivity of labeling in human plasma” value is “remained selective even at a high probe concentration (20 μM)”. Moreover, the “labeling of purified coagulation factors by fluorescent ABP (blot, 488 nm)” value in test [3] was “only one fluorescent band generated by fXIa labeling and no off-target signals”.

Consider “Ac-Tyr(2,6-Cl2-Z)-2-Aoc-hSer(Bzl)-Arg-ACC [SMXI23]”, for which the “decrease in activity relative to SMXI3 (P2 L-His(Bzl))” value in test [2] is 5.5 fold.

As for “Ac-Tyr(2,6-Cl2-Z)-Dht-His(Bzl)-Arg-ACC [SMXI19]”, the “kcat/KM APC” value in test [8] was found to be 91 ± 3 M⁻¹ s⁻¹. Also, the “kcat/KM fXIa” value in test [6] is 247,000 ± 5,000 M^-1 s^-1 and 247,000 ± 5000 M^-1 s^-1. Further, the “fold better hydrolyzed by fXIa than by fXa (kcat/KM ratio)” value in test [6] (fXIa over fXa) is 80 fold. Besides, the “fold better hydrolyzed by fXIa than by thrombin (kcat/KM ratio)” value in test [6] (fXIa over thrombin) came to 28 fold.

With “biotin-PEG(4)-Tyr(2,6-Cl2-Z)-Dht-His(Bzl)-ArgP(OPh)2 [P-SMXI191]”, in test [3], the “labeling of purified coagulation factors by biotinylated ABP (western blot)” value was “only one signal from a protein between 35 and 40 kDa, corresponding to a fXIa monomer”.

The values are drawn from PMC10041521, “Fluorescent Activity-Based Probe To Image and Inhibit Factor XIa Activity in Human Plasma” (Journal of Medicinal Chemistry, 2023).
